Data set [1] is described as follows: Cytotoxicity against african green monkey Vero cells after 72 hrs by resazurin assay. It is filed as cell-based. Particulars: chlorocebus sabaeus. (Resazurin is reduced to fluorescent resorufin, in cell work by metabolically active cells.)
Data set [2] concerns Mycobacterium tuberculosis. As to the kind of experiment: Antimicrobial activity against Mycobacterium tuberculosis H37Rv after 4 weeks by agar dilution assay. In kind it is functional. Particulars: 672 h. For orientation: In agar dilution, organisms are placed on agar that contains the substance at set levels.
Data set [3] can be described thus: Selectivity index, ratio of CC50 african green monkey Vero cells to MIC for Mycobacterium tuberculosis H37Rv. It is filed as functional.
Data set [4] has as its system Mycobacterium tuberculosis. Put plainly: Antimicrobial activity against Mycobacterium tuberculosis H37Rv after 11 days using [14]C labeled palmitic acid as substrate by radiometric Bactec 460TB method. In kind it is functional. Particulars: 264 h.
The subject of data set [5] is Mycobacterium tuberculosis. Put plainly: Ratio of NTZ MIC to compound MIC for Mycobacterium tuberculosis H37Rv. In kind it is functional.
In data set [6] the test system is Mycobacterium tuberculosis. As to the kind of experiment: Antimicrobial activity against non-replicating Mycobacterium tuberculosis. It is filed as functional.
The test system of data set [7] is Mycobacterium tuberculosis. Put plainly: Antimicrobial activity against replicating Mycobacterium tuberculosis. It is filed as functional.

Values after ≈ are worked out from the molar mass of the structure shown.

One may read the CC50 as the concentration at which the toxic effect on the cells reaches its halfway point. A word on the MIC: it is the lowest concentration that inhibits growth of the organism. `COc1ccc(-c2csc(N/N=C3/CCCc4c(OC)cccc43)n2)cc1OC` showed a CC50 at 72 h in data set [1] above 244 µM. For the same molecule, the MIC was found to be 6.25 µg/mL (≈ 15.3 µM) in data set [2] and 6.25 µM (≈ 2.56 µg/mL) in data set [4]. For the same molecule, the Ratio result in data set [3] is “>=39”. Also, the “fold change (FC)” value in data set [5] worked out at 3.
Molecule `COc1cccc2c1CCC/C2=N/Nc1nc(-c2ccc(Cl)cc2Cl)cs1` had an MIC in data set [2] of 12.5 µg/mL (≈ 29.9 µM). Besides, the “fold change (FC)” value in data set [5] is 2.
In turn, `COc1cccc2c1CCC/C2=N/Nc1nc(-c2ccc(F)cc2)cs1` returned a CC50 at 72 h in data set [1] above 300 µM. The MIC came to 6.25 µg/mL (≈ 17 µM) in data set [2] and 6.25 µM (≈ 2.3 µg/mL) in data set [4]. For the same molecule, in data set [3], the Ratio result is given as “>=48”. Further, the “fold change (FC)” value in data set [5] stood at 3.
On to `COc1cccc2c1CCC/C2=N/Nc1nc(-c2cccc([N+](=O)[O-])c2)cs1`, for which it took 12.5 µg/mL (≈ 31.7 µM) to inhibit growth in data set [2] (MIC). For the same molecule, the “fold change (FC)” value in data set [5] was found to be 2.
For `COc1ccc(-c2csc(N/N=C/c3cn(Cc4ccc(Cl)cc4Cl)c4ccccc34)n2)cc1OC`, in data set [2], the MIC is above 12.5 µg/mL.
In data set [2], `Clc1ccc(Cn2cc(/C=N/Nc3nc(-c4ccc(Cl)cc4Cl)cs3)c3ccccc32)c(Cl)c1` registered an MIC of 12.5 µg/mL (≈ 22.9 µM).
In data set [2], `Fc1ccc(-c2csc(N/N=C/c3cn(Cc4ccc(Cl)cc4Cl)c4ccccc34)n2)cc1` registered an MIC above 12.5 µg/mL.
For the molecule `Fc1ccc(Nc2nc(-c3ccc(F)cc3)cs2)cc1`, the MIC in data set [2] is 1.8 µg/mL (≈ 6.24 µM); in data set [4] it was 12.5 µM (≈ 3.6 µg/mL). Besides, the “fold change (FC)” value in data set [5] came out at 9.
`COc1ccc(OC)c(Nc2nc(-c3ccc(F)cc3)cs2)c1`: the MIC in data set [2] is above 12.5 µg/mL.
In data set [2], `COc1ccc(OC)c(Nc2nc(-c3cccc([N+](=O)[O-])c3)cs2)c1` registered an MIC above 12.5 µg/mL.
Consider `COc1ccc(-c2csc(Nc3cc(OC)ccc3OC)n2)cc1`, for which the MIC in data set [2] is above 12.5 µg/mL.
Consider `COc1ccc(-c2csc(Nc3ccccc3C(F)(F)F)n2)cc1OC`, for which the MIC in data set [2] is above 12.5 µg/mL.
Same read-out and setting: for `Fc1ccc(-c2csc(Nc3ccccc3C(F)(F)F)n2)cc1` the value was above 12.5 µg/mL; for `O=[N+]([O-])c1cccc(-c2csc(Nc3ccccc3C(F)(F)F)n2)c1`, above 12.5 µg/mL.
In data set [2], `COc1ccc(-c2csc(Nc3ccccc3C(F)(F)F)n2)cc1` displayed an MIC above 12.5 µg/mL.
`NNC(=O)c1ccncc1` [ISONIAZID]: in data set [2], the MIC was below 1 µg/mL.
Turning to `CC(=O)Oc1ccccc1C(=O)Nc1ncc([N+](=O)[O-])s1` [NITAZOXANIDE], the MIC in data set [6] and in data set [7] was 52.1 µM (≈ 16 µg/mL) throughout.
In data set [4], `CN[C@@H]1[C@H](O[C@H]2[C@H](O[C@H]3[C@H](O)[C@@H](O)[C@H](N=C(N)N)[C@@H](O)[C@@H]3N=C(N)N)O[C@@H](C)[C@]2(O)C=O)O[C@@H](CO)[C@H](O)[C@H]1O` [STREPTOMYCIN] gave an MIC of 6 µM (≈ 3.49 µg/mL).
Consider `O=C(Nc1ncc([N+](=O)[O-])s1)c1ccccc1O` [TIZOXANIDE], for which the MIC in data set [6] and in data set [7] was 60.4 µM (≈ 16 µg/mL) each time.
